Assay results reported in ChEMBL document CHEMBL4219155, “Structure-based drug design of 1,3,6-trisubstituted 1,4-diazepan-7-ones as selective human kallikrein 7 inhibitors” (Bioorg Med Chem Lett, 2018).

Assays:
[1] = target: Kallikrein-7 (Homo sapiens, UniProt P49862); assay: Inhibition of recombinant human KLK7 using MOCAc-Arg-Pro-Lys-Pro-Val-Glu-Nva-Trp-Arg-Lys(Dnp)-NH2 as substrate preincubated for 10 mins followed by substrate addition measured after 30 mins by fluorescence assay
[2] = target: T1, Kallikrein-5 (Homo sapiens, UniProt Q9Y337); assay: Inhibition of recombinant human KLK5 using Boc-Val-Pro-Arg-MCA as substrate preincubated for 10 mins followed by substrate addition measured after 30 mins by fluorescence assay
T1 sequence (Q9Y337 whole entry): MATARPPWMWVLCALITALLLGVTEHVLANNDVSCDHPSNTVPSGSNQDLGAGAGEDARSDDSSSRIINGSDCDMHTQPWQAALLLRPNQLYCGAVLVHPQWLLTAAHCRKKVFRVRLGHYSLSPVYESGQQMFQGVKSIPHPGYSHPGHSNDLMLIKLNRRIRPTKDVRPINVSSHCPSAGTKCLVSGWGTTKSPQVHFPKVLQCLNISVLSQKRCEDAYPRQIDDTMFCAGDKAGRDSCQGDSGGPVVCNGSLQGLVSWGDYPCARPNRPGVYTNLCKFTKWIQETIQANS

[3] = Inhibition of human chymotrypsin using Suc-Ala-Ala-Pro-Phe-MCA as substrate preincubated for 10 mins followed by substrate addition measured after 30 mins by fluorescence assay
[4] = target: Trypsin (Homo sapiens, UniProt P07477+P07478+P35030); assay: Inhibition of human trypsin using Boc-Gln-Ala-Arg-MCA as substrate preincubated for 10 mins followed by substrate addition measured after 30 mins by fluorescence assay; format: protein assay

Kallikrein-7, sequence (P49862 whole entry): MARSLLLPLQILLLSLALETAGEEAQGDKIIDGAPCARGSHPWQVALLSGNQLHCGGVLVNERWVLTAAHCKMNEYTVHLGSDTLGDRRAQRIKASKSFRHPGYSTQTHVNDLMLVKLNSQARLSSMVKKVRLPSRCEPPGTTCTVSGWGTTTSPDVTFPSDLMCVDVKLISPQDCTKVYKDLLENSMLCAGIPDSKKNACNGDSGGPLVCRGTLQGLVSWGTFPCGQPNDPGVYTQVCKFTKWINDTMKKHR

IC50 [1] [nM]	IC50 [2] [nM]	IC50 [3] [nM]	IC50 [4] [nM]	Compound
590				COc1ccc(Cl)cc1C[C@@H]1CN/C(=N\N(C)C)CN(CC(=O)Nc2cccc(-c3ccco3)c2)C1=O
990				COc1ccc(Cl)cc1C[C@@H]1CN/C(=N\N(C)C)CN(CC(=O)Nc2cccc(S(=O)(=O)N(C)C)c2)C1=O
450				CC[C@@H](C(=O)Nc1cccc(-c2cnn(C)c2)c1)N1C/C(=N/N(C)C)NC[C@@H](Cc2cc(Cl)ccc2OC)C1=O
4100				CCCC[C@H](C(=O)Nc1cccc(-c2cnn(C)c2)c1)N1C/C(=N/N(C)C)NC[C@@H](Cc2cc(Cl)ccc2OC)C1=O
670				COc1ccc(Cl)cc1C[C@@H]1CN/C(=N\N(C)C)CN(CC(=O)Nc2cccc(-c3ccoc3)c2)C1=O
5300				COc1ccc(Cl)cc1C[C@@H]1CN/C(=N\N(C)C)CN(CC(=O)Nc2cccc(C#N)c2)C1=O
870				COc1ccc(Cl)cc1C[C@@H]1CN/C(=N\N(C)C)CN(CC(=O)Nc2cccc(-c3cccs3)c2)C1=O
2800				CC[C@H](C(=O)Nc1cccc(-c2cnn(C)c2)c1)N1C/C(=N/N(C)C)NC[C@@H](Cc2cc(Cl)ccc2OC)C1=O
3900				COc1ccc(Cl)cc1C[C@@H]1CN/C(=N\N(C)C)CN(CC(=O)Nc2cccc(S(=O)(=O)C(F)(F)F)c2)C1=O
1500				COc1ccc(Cl)cc1C[C@@H]1CN/C(=N\N(C)C)CN(CC(=O)Nc2cccc(-c3ccsc3)c2)C1=O
920				COc1ccc(Cl)cc1C[C@@H]1CN/C(=N\N(C)C)CN([C@H](C)C(=O)Nc2cccc(-c3cnn(C)c3)c2)C1=O
2500				COc1ccc(Cl)cc1C[C@@H]1CN/C(=N\N(C)C)CN(CC(=O)Nc2cccc(C(=O)N(C)C)c2)C1=O
7000				CCC[C@H](C(=O)Nc1cccc(-c2cnn(C)c2)c1)N1C/C(=N/N(C)C)NC[C@@H](Cc2cc(Cl)ccc2OC)C1=O
940				CNC(=O)c1cccc(NC(=O)CN2C/C(=N/N(C)C)NC[C@@H](Cc3cc(Cl)ccc3OC)C2=O)c1
58	> 30000	3100	> 30000	COc1ccc(Cl)cc1C[C@@H]1CN/C(=N\N(C)C)CN([C@@H](C)C(=O)Nc2cccc(-c3cnn(C)c3)c2)C1=O
110				CCCC[C@@H](C(=O)Nc1cccc(-c2cnn(C)c2)c1)N1C/C(=N/N(C)C)NC[C@@H](Cc2cc(Cl)ccc2OC)C1=O
4300				COc1ccc(Cl)cc1C[C@@H]1CN/C(=N\N(C)C)CN(CC(=O)Nc2cccc(C(F)(F)F)c2)C1=O
48	> 30000	1300	> 30000	CCC[C@@H](C(=O)Nc1cccc(-c2cnn(C)c2)c1)N1C/C(=N/N(C)C)NC[C@@H](Cc2cc(Cl)ccc2OC)C1=O
520	> 30000	> 30000	> 30000	COc1ccc(Cl)cc1C[C@@H]1CN/C(=N\N(C)C)CN(CC(=O)Nc2cccc(-c3cnn(C)c3)c2)C1=O
2700				COc1cccc(NC(=O)CN2C/C(=N/N(C)C)NC[C@@H](Cc3cc(Cl)ccc3OC)C2=O)c1
